{
  "source": "patent US20250115595A1",
  "about": "“INHIBITORS OF HYPOXIA-INDUCIBLE FACTORS” (The Johns Hopkins University, priority 2021, published 2025)",
  "key": {"[1]": {"biological_target": "T1, HIF-1α (Homo sapiens, UniProt Q16665)", "T1 construct": "endogenous in cells; host or cells: MIO-M1 (immortalized human Müller glial cell line), hypoxia", "T1 sequence (Q16665 whole entry)": "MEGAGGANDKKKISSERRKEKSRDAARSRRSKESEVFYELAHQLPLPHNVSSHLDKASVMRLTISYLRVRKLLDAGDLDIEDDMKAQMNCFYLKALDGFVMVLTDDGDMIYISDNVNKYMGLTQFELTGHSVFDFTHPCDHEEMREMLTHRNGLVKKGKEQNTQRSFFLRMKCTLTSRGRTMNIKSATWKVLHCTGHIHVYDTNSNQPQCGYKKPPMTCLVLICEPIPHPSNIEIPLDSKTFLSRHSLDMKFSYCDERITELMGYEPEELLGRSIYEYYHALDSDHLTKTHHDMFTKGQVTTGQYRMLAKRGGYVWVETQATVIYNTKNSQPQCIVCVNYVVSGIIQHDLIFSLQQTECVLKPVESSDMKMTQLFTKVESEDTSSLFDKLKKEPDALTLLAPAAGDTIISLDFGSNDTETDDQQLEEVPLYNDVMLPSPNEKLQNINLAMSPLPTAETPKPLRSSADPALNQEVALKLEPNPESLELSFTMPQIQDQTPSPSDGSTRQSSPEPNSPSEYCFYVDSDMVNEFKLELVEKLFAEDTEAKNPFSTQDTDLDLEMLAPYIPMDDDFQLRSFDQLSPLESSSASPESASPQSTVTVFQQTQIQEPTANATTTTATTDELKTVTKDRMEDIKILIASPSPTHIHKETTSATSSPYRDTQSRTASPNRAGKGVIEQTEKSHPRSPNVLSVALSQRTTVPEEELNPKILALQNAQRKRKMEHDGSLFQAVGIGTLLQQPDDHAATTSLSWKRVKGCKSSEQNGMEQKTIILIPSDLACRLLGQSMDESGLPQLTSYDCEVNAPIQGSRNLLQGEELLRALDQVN", "assay": "Immunoblot of HIF-1α accumulation in hypoxic MIO-M1 cells", "format": "cell-based", "experimental": "It has previously been reported that the cells in the inner nuclear layer of the retina that express VEGF in response to hypoxia/ischemia are Müller glial cells (X. Xin et al., Proc Natl Acad Sci USA 110, E3425-3434 (2013)). […] The effects of 32-134D on HIF-1α accumulation persisted up to 16 hours after treatment of cultured cells (FIG. 27B).\nPharmacokinetic analysis of 32-134D in the neurosensory retina following intraocular administration was determined by liquid chromatography and tandem mass spectrometry (LC-MS/MS) to quantify the concentration of 32-134D in retinal tissue over 14 days following a single 70-ng intraocular injection of 32-134D (see Methods of all parameters). […] The total exposure (area under the curve or AUClast) was 72.3 nmol*day/g.\nCells culture and reagents: MIO-M1 cells were a gift from Dr. Astrid Limb (University College London, Institute of Ophthalmology, London, United Kingdom). MIO-M1 and HUVEC cells were cultured in DMEM with 10% (vol/vol) FBS (Quality Biological) and 1% penicillin/streptomycin (Cellgro). Hypoxia chambers were used to expose cells. Evans Blue (E2129) was purchased from Sigma-Aldrich.\nImmunoblot assays and ELISAs: Cell, neurosensory retina, and D120 retinal organoid lysates were subjected to 4-15% gradient SDS/PAGE (Invitrogen). […]"}, "[2]": {"test_system": "STZ mice", "assay": "STZ diabetic mouse model, intraocular dosing", "format": "in vivo", "details": "single intraocular injection 70 ng, 5 days", "experimental": "The efficacy of 32-134D following intraocular administration with 70 ng, as well as a lower dose (14 ng), in OIR mice at P12 (J. Zhang et al., J Clin Invest 131 (2021)) was determined.\nThe efficacy of 32-134D following IVT administration was also evaluated in the STZ model. STZ mice that were hyperglycemic for 6 months were treated with a single intraocular injection with 70 ng 32-134D in 1 ul or with vehicle (DMSO) control. 5 days later vascular hyperpermeability was assessed by examining leakage of intravascular Evans blue dye in STZ mice.\n(§1) Vascular permeability by Evans blue tracer method: Mice were anesthetized with a mixture of ketamine (50 mg/kg) and xylazine (5 mg/kg) and subjected to Evans blue (Sigma) (50 mg/kg) perfusion by penile vein injection. […] Images were captured by Zeiss fluorescent microscope or confocal microscopy and fluorescence quantified by image J software (NIH). […] Blinded quantification of the number of leaking vessels was performed by manual counting major leakage from capillaries from retinas of each group. Non-capillary artifactual Evans blue or FITC-dextran leakage due to flat mount processing as well as minor leakages were not included in the quantitation. […] Random fields were chosen from retinas where leakages were absent to determine baseline fluorescence that arise from capillaries. For quantification, high magnifications (20×) images were taken. […]"}, "[3]": {"test_system": "STZ mice", "assay": "STZ diabetic mouse model, intraperitoneal dosing", "format": "in vivo", "details": "5 daily IP injections 40 mg/kg", "experimental": "The ability of 32-143D to inhibit vascular permeability in diabetic patients was evaluated using the streptozotocin (STZ) model for diabetic macular edema. 8-to-10-week-old C57BL/6 mice were administered STZ by IP injection. Hyperglycemia (serum glucose >250 mg/dL) was confirmed by glucometer 2 weeks later. After 6 months of sustained hyperglycemia, mice were treated with 5 daily IP injections with 32-134D at 40 mg/kg or with vehicle control. 24 hours after the fifth IP injection, mice were euthanized, Evans blue perfusion was performed, and retina flat mounts were examined for vascular leakage.\nas §1, with “capillaries.” for “capillaries. For quantification, high magnifications (20×) images were taken.”"}, "[4]": {"test_system": "Hepa1-6 mouse HCC cells", "assay": "RT-qPCR of hypoxia-induced mRNAs in Hepa1-6 cells", "format": "cell-based", "experimental": "Effects of 32-134D on Hepa1-6 mouse HCC cells and tumors. […] Thus, 32-134D inhibits the ability of hypoxic HCC cells to increase O2 delivery by stimulating angiogenesis (Angpt14, Pgf, Vegfa) or […] anaerobic metabolism by increasing glycolytic flux (Glut1, Pgk1, Ldha).\nHuman Hep3B and mouse Hepa1-6 cells were purchased from ATCC and grown in high-glucose (4.5 mg/ml) Dulbecco's modified Eagle's medium supplemented with 10% (vol/vol) fetal bovine serum and […] at 37° C. in a 5% CO2/95% air incubator (20% O2). Human cell line identity was authenticated by analysis of short tandem repeats, and all cell lines were maintained mycoplasma free, using PCR-based assays conducted at the Johns Hopkins University Genetic Resources Core Facility. Cells were subjected to hypoxia in a controlled atmosphere chamber (PLAS Labs) with ambient gas mixture containing 1% O2 and 5% CO2.\nRNA was extracted using TRIzol Reagent (ThermoFisher). Quantitative Real-time PCR was conducted using SYBR Green PCR Master Mix (BioRad) and reactions were run using the BioRad thermal cycler (BioRad). The mRNA expression of target genes was normalized to the expression of 18S rRNA and the fold change (FC) was calculated based on the threshold cycle (Ct) as […]"}},
  "note": "Entries after “also recorded” stand apart in the source; their conditions may differ.",
  "data": [
    {"molecule": "Brc1ccc2c(-c3csc(-c4c[nH]c5c(Br)cccc45)n3)c[nH]c2c1", "note": "[Compound 32-134D, 4-(6-bromo-1H-indol-3-yl)-2-(7-bromo-1H-indol-3-yl)thiazole]", "values": [
      {"measurement": "persistence of effect on HIF-1α accumulation after treatment", "setting": "[1]; 10 μM", "value": "up to 16 hours"},
      {"measurement": "IC50", "setting": "[1]; hypoxia 4 hours, quantitation of immunoblots, read-out: IC50 of HIF-1α protein accumulation", "value": 3.5, "unit": "µM"},
      {"measurement": "vascular hyperpermeability (Evans blue leakage)", "setting": "[2]", "value": "effectively inhibited; also recorded: significant decrease"},
      {"measurement": "vascular leakage (Evans blue fluorescence intensity)", "setting": "[3]", "value": "significantly decreased vascular leakage"},
      {"measurement": "hypoxia induction of B7h4 and Tim3 mRNAs", "setting": "[4]; Hepa1-6 cells, 5 μM", "value": "hypoxia-induced in vehicle but not in 32-134D-treated cells"},
      {"measurement": "hypoxia induction of Pdl1 mRNA", "setting": "[4]; Hepa1-6 cells, 5 μM", "value": "hypoxia-induced in vehicle-treated but not in 32-134D-treated cells"},
      {"measurement": "hypoxia-induced expression of Glut1 and Ldha", "setting": "[4]; Hepa1-6 cells, 5 μM", "value": "blocked"},
      {"measurement": "decreased Cxcl1, Il6 and Il10 mRNA levels", "setting": "[4]; cultured Hepa1-6 cells", "value": "not in cultured Hepa1-6 cells exposed to 32-134D"},
      {"measurement": "hypoxia-induced IL22 mRNA expression", "setting": "[4]; cultured Hepa1-6 cells", "value": "inhibited"},
      {"measurement": "hypoxia-induced expression of mRNA encoding Angpt14, Pgf, Vegfa and Pgk1", "setting": "[4]; hypoxic Hepa1-6 cells", "value": "significant dose-dependent inhibition"}
    ]}
  ]
}
